In US6989371B1, “Bombesin analogs for treatment of cancer” (Dabur Research Foundation, priority 1996, dated 2006):
Non-standard residues stand in square brackets, D forms with d. Residues, ends and D or L forms follow the SMILES beside them. Aib = CC(C)(N)C(=O)O

How the values were obtained:
Assay in all cases: MTT cytotoxicity assay, 72 hours (Example 13)
Assay type in all cases: cell-based, human
[1] = tested on: HT-29 (colon)
Protocol: (§1) The cytotoxic activity of other synthesized bombesin analogs was tested on eight human tumor cell lines namely HT-29, SW620, PTC (all colon), PA-1 (ovary), A549 (lung), HBL100(breast), MOLT-4 (leukemia) and DU145 (prostate). The tumor cells were collected at exponential growth phase and resuspended in medium (1.5×10^6) cells/ml in RPMI 1640 containing 10% FBS). 150 μl of medium was added to the wells of a 96-well tissue culture plate (Nunc, Denmark) followed by 30 μl of cell suspension. The plate was left in incubator (37° C., 5% CO2 overnight. 20 μl of the peptide (10^−7×10^×10M concentration) was added to marked wells of the 96-well plate. Each concentration was plated in cells served as blanks. A total volume of 200 μl was ensured in each well and plate was left in incubator (37° C., 5% CO2). After 72 hours of incubation an MTT assay was performed and percentage cytotoxicity was calculated with respect to control cells. Following tables show the cytotoxicity achieved on various cell lines at different concentrations.

[2] = tested on: SW620 (colon)
Protocol: as §1

[3] = tested on: PA-1 (ovary)
Protocol: as §1

[4] = tested on: DU145 (prostate)
Protocol: as §1

[5] = tested on: PTC (colon)
Protocol: as §1

[6] = tested on: MOLT-4 (leukemia)
Protocol: as §1

[7] = tested on: A549 (lung)
Protocol: as §1

[8] = tested on: HBL100 (breast); details: HBL
Protocol: as §1

Row | Structure (SMILES) | Percent Cytotoxicity ([1]; HT29, 10 nM) [%] | Percent Cytotoxicity ([1]; HT29, 100 nM) | Percent Cytotoxicity ([2]; SW620, 1 nM) [%] | Percent Cytotoxicity ([2]; SW620, 10 nM) [%] | Percent Cytotoxicity ([2]; SW620, 100 nM) [%] | Percent Cytotoxicity ([2]; SW620, 100 PM) [%] | Percent Cytotoxicity ([3]; PA-1, 1 nM) [%] | Percent Cytotoxicity ([3]; PA-1, 10 nM) [%] | Percent Cytotoxicity ([3]; PA-1, 100 nM) [%] | Percent Cytotoxicity ([3]; PA-1, 100 PM) [%] | Percent Cytotoxicity ([4]; DU145, 10 nM) | Percent Cytotoxicity ([4]; DU145, 100 nM) | Percent Cytotoxicity ([5]; 1 nM) [%] | Percent Cytotoxicity ([5]; 10 nM) [%] | Percent Cytotoxicity ([5]; 100 nM) [%] | Percent Cytotoxicity ([5]; 100 PM) [%] | Percent Cytotoxicity ([6]; MOLT4, 1 nM) | Percent Cytotoxicity ([6]; MOLT4, 10 nM) | Percent Cytotoxicity ([6]; MOLT4, 100 nM) | Percent Cytotoxicity ([7]; A549, 10 nM) [%] | also measured
1 | CC[C@H](C)[C@H](NC(=O)[C@H](Cc1c[nH]cn1)NC(=O)CNC(=O)[C@@H](NC(=O)C(C)(C)NC(=O)[C@H](Cc1c[nH]c2ccccc12)NC(=O)[C@H](CCC(N)=O)NC(=O)[C@H](N)Cc1ccccc1)C(C)C)C(N)=O [SEQ ID: 6, D-Phe-Gln-Trp-Aib-Val-Gly-His-Ile-NH2] (H-[dF]QW[Aib]VGHI-NH2; N-terminus assumed) | 6.8 ± 0.7 | NIL | 33.5 ± 5.2 | 38.1 ± 7.3 | 23.5 ± 5.1 | 24.8 ± 4.2 | 7.4 ± 1.0 | 8.7 ± 1.9 | 9.2 ± 1.0 | 11.1 ± 2.9 | 16.6% | 13.7 ± 0.9% | 9.1 ± 0.7 | 10.4 ± 0.8 | 24.7 ± 5.2 | 10.1 ± 0.6 | 0.8 ± 0.1% | 20.4 ± 4.3% | NIL | 3.2 ± 0.1 | Percent Cytotoxicity ([1]; HT29, 1 nM): 26.7 ± 4.2%; Percent Cytotoxicity ([1]; HT29, 100 PM): 16.8 ± 0.5%; Percent Cytotoxicity ([4]; DU145, 1 nM): 3.9 ± 5.2%; Percent Cytotoxicity ([4]; DU145, 100 PM): 12.1 ± 0.8%; Percent Cytotoxicity ([6]; MOLT4, 100 PM): 11.0 ± 0.6%; Percent Cytotoxicity ([7]; A549, 1 nM): 13.0 ± 0.8%; Percent Cytotoxicity ([7]; A549, 100 nM): 1.9 ± 0.6%; Percent Cytotoxicity ([7]; A549, 100 PM): 12.4 ± 0.7%; Percent Cytotoxicity ([8]; 1 nM): 1.2 ± 0.3%; Percent Cytotoxicity ([8]; 10 nM): 6.0 ± 0.4%; Percent Cytotoxicity ([8]; 100 nM): 17.0 ± 0.5%; Percent Cytotoxicity ([8]; 100 PM): NIL
2 | CC[C@H](C)[C@H](NC(=O)[C@H](Cc1c[nH]cn1)NC(=O)C(C)(C)NC(=O)[C@@H](NC(=O)[C@H](C)NC(=O)[C@H](Cc1c[nH]c2ccccc12)NC(=O)[C@H](CCC(N)=O)NC(=O)[C@H](N)Cc1ccccc1)C(C)C)C(N)=O [SEQ ID: 7, D-Phe-Gln-Trp-Ala-Val-Aib-His-Ile-NH2] (H-[dF]QWAV[Aib]HI-NH2; N-terminus assumed) | 28.2 ± 2.8 | 15.5 ± 1.9% | 32.0 ± 5.8 | 20.8 ± 1.9 | 25.4 ± 2.9 | 33.6 ± 5.8 | 25.6 ± 2.9 | 22.7 ± 3.4 | 9.6 ± 4.1 | 24.5 ± 4.2 | NIL | NIL | 12.4 ± 2.1 | 7.6 ± 0.7 | 9.3 ± 1.8 | 8.2 ± 0.9 | NIL | NIL | 13.1 ± 0.3% | 17.9 ± 0.9 | Percent Cytotoxicity ([7]; A549, 100 nM): 6.7 ± 2.0%; Percent Cytotoxicity ([8]; 1 nM): 12.0 ± 0.7%; Percent Cytotoxicity ([8]; 10 nM): 7.0 ± 0.7%; Percent Cytotoxicity ([8]; 100 nM): 16.1 ± 3.9%; Percent Cytotoxicity ([8]; 100 PM): 4.0 ± 0.6%
